For assay [1], the target named is T1, calpain-1 from human erythrocytes (Homo sapiens, UniProt P07384).
T1 construct: calpain-1 from human erythrocytes; purchased Merck Millipore 208713; host or cells: human erythrocytes (natural source)
T1 sequence (P07384 1-714): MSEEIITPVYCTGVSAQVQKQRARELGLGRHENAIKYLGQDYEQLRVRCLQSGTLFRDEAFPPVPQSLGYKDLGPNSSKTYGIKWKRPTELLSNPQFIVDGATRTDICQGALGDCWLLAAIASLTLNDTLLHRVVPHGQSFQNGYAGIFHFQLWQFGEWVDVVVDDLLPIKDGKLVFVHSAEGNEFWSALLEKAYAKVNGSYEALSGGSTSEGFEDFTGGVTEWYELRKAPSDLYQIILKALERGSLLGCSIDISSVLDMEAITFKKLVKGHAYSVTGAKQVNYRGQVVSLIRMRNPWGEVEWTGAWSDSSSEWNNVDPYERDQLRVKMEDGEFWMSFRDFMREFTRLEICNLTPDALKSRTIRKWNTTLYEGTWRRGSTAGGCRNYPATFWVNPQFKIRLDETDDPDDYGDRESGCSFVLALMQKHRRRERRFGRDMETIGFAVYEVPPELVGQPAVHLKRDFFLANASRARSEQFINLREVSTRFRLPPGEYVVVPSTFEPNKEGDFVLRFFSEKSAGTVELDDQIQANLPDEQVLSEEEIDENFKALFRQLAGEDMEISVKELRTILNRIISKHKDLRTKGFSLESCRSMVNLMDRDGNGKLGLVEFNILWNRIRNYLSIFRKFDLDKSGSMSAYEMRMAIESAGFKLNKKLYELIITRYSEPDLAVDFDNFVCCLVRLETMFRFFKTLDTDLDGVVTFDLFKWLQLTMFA
T1 sequence (P04632 1-268 partner): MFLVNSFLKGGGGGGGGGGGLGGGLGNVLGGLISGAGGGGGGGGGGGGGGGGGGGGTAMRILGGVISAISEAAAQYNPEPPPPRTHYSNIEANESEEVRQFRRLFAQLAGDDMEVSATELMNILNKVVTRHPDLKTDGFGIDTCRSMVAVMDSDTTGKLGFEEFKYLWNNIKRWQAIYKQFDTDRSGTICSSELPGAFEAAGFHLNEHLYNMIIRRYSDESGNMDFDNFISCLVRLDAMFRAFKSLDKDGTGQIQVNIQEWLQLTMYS
In words: Fluorescence assay with calpain-1. Format: biochemical. The settings on record: 10 μM probe, 17.4 U/mL calpain-1, 5 mM CaCl2, 37° C., excitation 475 nm, fluorescence 500-550 nm; for increase in fluorescence intensity 10 minutes after the addition of calpain-1: FIG. 5(b). The procedure: The fluorescence assays of Compound 19 and Compound 16 with time were performed. Specifically, 17.4 U/mL of calpain-1 and 5 mM CaCl2 were added to a 50 mM TRIS buffer (pH: 7.4, 2 mM EGTA, 2 mM DTE) containing 10 μM of each of the synthesized fluorescent probes to perform an enzyme reaction at 37° C. Each of the compounds to which calpain-1 and CaCl2 were not added was similarly subjected as a negative control to the measurement.
The fluorescence assays of Compounds 16 to 36 were similarly performed. 50 Units per milliliter (Compounds 16 and 19 to 25) or 17.4 U/mL (Compounds 16 to 18 and 26 to 36) of calpain-1 and 5 mM CaCl2 were added to a 50 mM TRIS buffer (pH: 7.4, 2 mM EGTA, 2 mM DTE) containing 10 μM of each of the synthesized fluorescent probes to perform an enzyme reaction at 37° C.
Next, similar fluorescence assays of Compounds 37, 42, 45, 48, 51, 53, 55, 57, and 59 with calpain-1 were performed. Specifically, 17.4 U/mL of calpain-1 and 5 mM CaCl2 were added to a 50 mM TRIS buffer (pH: 7.4, 2 mM EGTA, 2 mM DTE) containing 10 μM of each of the synthesized fluorescent probes to perform an enzyme reaction at 37° C. Each of the compounds to which calpain-1 was not added was used as a control.
To evaluate an influence of a R^12-L-O— group on the reactivity of each of compounds having the same amino acids with calpain-1, the fluorescence assays of Compounds 37 to 66 with calpain-1 were performed in accordance with the above-mentioned method. Specifically, 17.4 U/mL of calpain-1 and 5 mM CaCl2 were added to a 50 mM TRIS buffer (pH: 7.4, 2 mM EGTA, 2 mM DTE) containing 10 μM of each of the synthesized fluorescent probes to perform an enzyme reaction at 37° C., followed by the measurement of an increase in fluorescence intensity of each of the compounds 10 minutes after the addition of calpain-1.

Assay [2] deals with SH-SY5Y cells. In words: Live cell imaging of calpain activity in SH-SY5Y cells. Format: cell-based. To be noted: 5 μM probe, 10 minutes incubation, confocal microscope; FIG. 12. The procedure:
Whether or not the improvement in enzymatic reactivity between the compound of the present invention and a calpain confirmed by the above-mentioned experiment remained the same even in a cell was verified. Calpain activity imaging in SH-SY5Y cells was performed on each of Compounds 16 and 19. Specifically, the SH-SY5Y cells (American Type Culture Collection, VA, USA) were cultured in a mixed medium of Dulbecco's modified eagle medium and Ham's F-12 medium (DMEM/F-12; Thermo Fisher Scientific, Inc.) (containing 10% fetal bovine serum (FBS; Thermo Fisher Scientific, Inc., MA, USA) and 100 U/mL penicillin-100 μg/mL streptomycin (PS; Thermo Fisher Scientific, Inc.)) under the conditions of 37° C. and 5% CO2-95% air. 6×10^4 to 8×10^4 Cells/well of the cells were seeded in a multiwell plate (μ-Plate 96 Well; ibidi, Grafelfing, Germany) coated with poly-D-lysine (Thermo Fisher Scientific, Inc.) and laminin (BD Biosciences, CA, USA), and were preincubated in a culture solution. Immediately after the removal of the culture solution in the wells, 200 μL of an assay solution (a culture solution containing a 5 μM probe) was added thereto, and the cells were incubated under the conditions of 37° C. and 5% CO2-95% air. 10 Minutes after that, a bright field image and a fluorescence image were taken with a confocal microscope (LSM 710, Carl Zeiss AG, Oberkochen, Germany).
Calpain activity imaging in SH-SY5Y cells was performed on each of Compounds 20 to 23, Compound 38, and Compound 56 in the same manner as in Example 9. In the case of each of Compounds 20 to 23 and Compound 38, a bright field image and a fluorescence image were taken after 30 minutes of incubation of the cells, and in the case of Compound 56, such images were taken after 20 minutes of incubation thereof.

Assay [3] has as its system calpain. In words: Rabbit NMDA injury model, ocular fundus imaging. Format: in vivo. The settings on record: for staining of nerve cells with HMRG in ocular fundus: 30, 45 and 60 minutes after probe into the eye (Compound 19 18.3 μM 19 μL; Compound 16 20 μM 19 μl or 38 μl). The procedure:
Black Dutch rabbits were each subjected to general anesthesia with a mixed liquid of ketamine and xylazine. N-Methyl-D-aspartate (NMDA) (12 mM, 50 μL) or PBS was administered into an eye of the rabbit. 9 Hours after that, the rabbit was anesthetized with a mixed liquid of ketamine and xylazine again, and Compound 19 (18.3 μM, 19 μL), Compound 16 (20 μM, 19 μl), or Compound 16 (20 μM, 38 μl) was administered into the eye. Images of an ocular fundus were taken with Mirante (a confocal scanning diode laser ophthalmoscope manufactured by Nidek Co., Ltd.) before the administration of each of the compounds and after the lapse of a predetermined time from the administration.

Molecules are shown by their SMILES.

In the case of `CCC(=O)N[C@@H](CC(C)C)C(=O)N[C@@H](CCSC)C(=O)Nc1ccc2c(c1)Oc1cc(N)ccc1C21OCc2ccccc21` (stereo partly shown) [Compound 17], the “increase in fluorescence intensity 10 minutes after the addition of calpain-1” value in assay [1] is reported as “reduced in fluorescence intensity as compared to Compound 16”.

For `CCCC(=O)N[C@@H](CC(C)C)C(=O)N[C@@H](CCSC)C(=O)Nc1ccc2c(c1)Oc1cc(N)ccc1C21OCc2ccccc21` (stereo partly shown) [Compound 18], the “increase in fluorescence intensity 10 minutes after the addition of calpain-1” value in assay [1] is “reduced in fluorescence intensity as compared to Compound 16”.

`CSCC[C@H](NC(=O)[C@H](CC(C)C)NC(C)=O)C(=O)Nc1ccc2c(c1)Oc1cc(N)ccc1C21OCc2ccccc21` (stereo partly shown) [Compound 16, reference compound]: the “change in fluorescence intensity with time by calpain-1” value in assay [1] (FIG. 4) is listed as “functioned as a fluorescent probe for calpain-1”. Further, the “calpain activity imaging in SH-SY5Y cells” value in assay [2] is “enabled the observation of calpain activity in the SH-SY5Y cells”. The “number of HMRG-positive cells in PBS rabbits compared to NMDA rabbits” value in assay [3] (Compound 19 (19 μL) and Compound 16 (38 μl), FIG. 23) was “significantly reduced”. In addition, the “staining of nerve cells with HMRG in ocular fundus” value in assay [3] (rabbits administered NMDA (12 mM, 50 μL)) was “many nerve cells were clearly stained with HMRG”; in assay [3] (rabbits administered PBS), “substantially no staining of the nerve cells with HMRG”.

Values taken from patent US20240279710A1, “FLUORESCENT PROBES” (TOHOKU TECHNO ARCH CO., LTD., priority 2021, published 2024).
